The structures appear in SMILES notation.

Series [1] in a line: Repeat of prior-art process (evaporation of solvents). The format is physicochemical. Conditions: prior-art process repeated, regardless of conditions used to distill out the water. The method, then: Process for the preparation of amorphous calcium pseudomonate is described in U.S. Pat. No. 4,916,155, U.S. Pat. No. 5,191,093 and U.S. Pat. No. 5,436,266. A solution of pseudomonic acid is dissolved in a mixture of methanol and water and neutralized to pH 7.1 with calcium oxide. The solution is filtered and the solvents are evaporated under reduced pressure to give solid foam. Trituration of the foam with diethyl ether affords amorphous calcium pseudomonate.
This decomposition occurred regardless of the conditions used to distill out the water.

The nature of series [2]: Decomposition of pseudomonic acid during the process of preparing the calcium salt. The format is physicochemical. The note with it: for Related Substances (from process) P.A. D / Decomposition Products D.P. I / Decomposition Products D.P. II / Related Substances (from process) P.A. B / Related Substances (from process) P.A. C / Related Substances (from process) P.A. E: before / after preparation of the calcium salt; for Decomposition Products D.P. I / Decomposition Products D.P. II / Related Substances (from process) P.A. B / Related Substances (from process) P.A. C / Related Substances (from process) P.A. E: unit assumed. The method, then: The calcium pseudomonate solution was prepared by a slow addition of solid calcium hydroxide to a suspension of pseudomonic acid in water. The calcium salt formed is gradually dissolved. The almost clear solution is filtered and frozen.
Pseudomonic acid (100 gr.) is suspended in water (1000 ml). The mixture is cooled below 15° C. and calcium hydroxide (ca. 7.0 gr.) is added gradually until the pH is 8. The slightly turbid mixture is filtered and the solution is frozen and lyophilized. The product obtained is crushed and milled to give amorphous calcium pseudomonate in quantitative yield.

The conditions of series [3]: on storage, prior patents; cited from earlier work.
Series [4] can be described thus: Stability on storage (related substances and decomposition products). Conditions: for Decomposition Products D.P. I / Related Substances (from process) P.A. B / Related Substances (from process) P.A. C / Related Substances (from process) P.A. D / Related Substances (from process) P.A. E: unit assumed. It is filed as physicochemical.

Turning to `C/C(=C\C(=O)OCCCCCCCCC(=O)[O-])C[C@@H]1OC[C@H](C[C@@H]2O[C@H]2[C@@H](C)[C@H](C)O)[C@@H](O)[C@H]1O.C/C(=C\C(=O)OCCCCCCCCC(=O)[O-])C[C@@H]1OC[C@H](C[C@@H]2O[C@H]2[C@@H](C)[C@H](C)O)[C@@H](O)[C@H]1O.[Ca+2]` [amorphous calcium pseudomonate, calcium pseudomonate], the “Decomposition during the evaporation of the solvents (in words)” value in series [1] is listed as “appreciable decomposition”. Besides, in series [2], the “Related Substances (from process) P.A. D” value is 1.25, the Decomposition Products D.P. I amounted to 0.62%, the Decomposition Products D.P. II worked out at 1.1% and the Related Substances (from process) P.A. B amounted to 0.4%. Further, in series [2], the Related Substances (from process) P.A. C is 0.1% and the Related Substances (from process) P.A. E came to 0.15%. Further, the “Thermal stability (in words)” value in series [3] is recorded as “thermally labile”. The “Decomposition on storage (in words)” value in series [4] (stored at an appropriate temperature) is reported as “did not show decomposition”. Further, in series [4] (t = 0), the “Decomposition Products D.P. II” value is 1.00, the Decomposition Products D.P. I was determined as 0.44%, the Related Substances (from process) P.A. B came out at 0.1% and the Related Substances (from process) P.A. C was determined as 0.09%. Further, in series [4] (t = 0), the Related Substances (from process) P.A. D is 0.9% and the Related Substances (from process) P.A. E stood at 0.1%. For the same molecule, in series [4] (t = 18 months (at 2-8° C.)), the “Decomposition Products D.P. II” value came out at 1.06, the Decomposition Products D.P. I worked out at 0.62%, the Related Substances (from process) P.A. B amounted to 0.18% and the Related Substances (from process) P.A. C stood at 0.08%. In addition, in series [4] (t = 18 months (at 2-8° C.)), the Related Substances (from process) P.A. D worked out at 0.97% and the Related Substances (from process) P.A. E was found to be 0.09%.
Turning to `C/C(=C\C(=O)OCCCCCCCCC(=O)O)C[C@@H]1OC[C@H](C[C@@H]2O[C@H]2[C@@H](C)[C@H](C)O)[C@@H](O)[C@H]1O` [pseudomonic acid, Pseudomonic acid A], in series [2], the “Related Substances (from process) P.A. D” value is listed as 1.17, the Decomposition Products D.P. I is 0.58%, the Decomposition Products D.P. II is 0.81% and the Related Substances (from process) P.A. B was 0.57%. In series [2], the Related Substances (from process) P.A. C stood at 0.16% and the Related Substances (from process) P.A. E worked out at 0.21%. Also, the “Decomposition during the preparation of the calcium salt (in words)” value in series [2] (process of the present invention) is reported as “no decomposition”.

The values above are taken from patent US20040039049A1, “Stable amorphous calcium pseudomonate and processes for the preparation thereof” (CHEMAGIS LTD, priority 2002, published 2004).
